Results taken from article PMC8445441, “Elucidating the mechanism by which synthetic helper peptides sensitize Pseudomonas aeruginosa to multiple antibiotics” (PLoS Pathogens, 2021).
Values joined by “and” are separate entries in the source; they are usually repeats but may differ in a detail not shown here. Equal entries are not always repeated. Where two headings read alike, the source gives them in different places.

Assays:
P. aeruginosa AUMC-Pa-2 = conditions: strain AUMC-Pa-2; antibiotic + D-11 (MICb/MICbc 64/4)
Procedure, shortened: (§1)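 Two-fold serial dilutions in MHB received an equal volume of bacteria (suspension about 1 × 10^6 CFU/mL). Plates were held 18 h at 37 °C, then read visually for growth. Triplicate, CLSI-based.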

P. aeruginosa AUMC-Pa-1 = conditions: strain AUMC-Pa-1; antibiotic + D-11 (MICb/MICbc 128/4)
Procedure, shortened: as §1

P. aeruginosa PAK = assay: microbe, parasite or virus in culture; set-up: MICa: MIC of the antibiotic / MICac: MIC of the antibiotic in the combination: unit not given beside the values; conditions: strain PAK
Procedure, shortened: as §1

P. aeruginosa NR-31041 = assay: microbe, parasite or virus in culture; set-up: MICa: MIC of the antibiotic / MICac: MIC of the antibiotic in the combination: unit not given beside the values; conditions: strain NR-31041
Procedure, shortened: as §1

P. aeruginosa ATCC27853 = assay: microbe, parasite or virus in culture; set-up: MICa: MIC of the antibiotic / MICac: MIC of the antibiotic in the combination: unit not given beside the values; conditions: strain ATCC27853
Procedure, shortened: as §1

P. aeruginosa NR-31040 = assay: microbe, parasite or virus in culture; set-up: MICa: MIC of the antibiotic / MICac: MIC of the antibiotic in the combination: unit not given beside the values; conditions: strain NR-31040
Procedure, shortened: as §1

P. aeruginosa PA14 = assay: microbe, parasite or virus in culture; set-up: MICa: MIC of the antibiotic / MICac: MIC of the antibiotic in the combination: unit not given beside the values; conditions: strain PA14
Procedure, shortened: as §1

P. aeruginosa AUMC-Pa-6 = assay: microbe, parasite or virus in culture; conditions: strain AUMC-Pa-6
Procedure, shortened: as §1

P. aeruginosa AUMC-Pa-3 = assay: microbe, parasite or virus in culture; conditions: strain AUMC-Pa-3
Procedure, shortened: as §1

P. aeruginosa PAO1 = assay: microbe, parasite or virus in culture; conditions: for MIC: Pseudomonas aeruginosa
Procedure, shortened: as §1

P. aeruginosa AUMC-Pa-4 = assay: microbe, parasite or virus in culture; conditions: strain AUMC-Pa-4
Procedure, shortened: as §1

P. aeruginosa AUMC-Pa-5 = assay: microbe, parasite or virus in culture; conditions: strain AUMC-Pa-5
Procedure, shortened: as §1

[1] = tested on: clinical P. aeruginosa isolates; assay: microbe, parasite or virus in culture; conditions: Pseudomonas aeruginosa, 18 h, antibiotic alone
Procedure, shortened: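 Broth microdilution per CLSI in MHB, two-fold drug dilutions mixed with an equal volume of bacteria at about 1 × 10^6 CFU/mL. After 18 h at 37 °C, MIC taken as the lowest concentration with no visible growth; run in triplicate.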

P. aeruginosa HM-214 = conditions: strain HM-214; antibiotic + D-11 (MICb/MICbc 128/4)
Procedure, shortened: as §1

[2] = antibiotic + D-11 (MICb/MICbc 64/4)
[3] = antibiotic alone, unit not given
[4] = with D-11 at MICbc 4, unit not given
[5] = antibiotic + D-11 (MICb/MICbc 128/4)

`CC[C@H]1OC(=O)[C@H](C)[C@@H](O[C@H]2C[C@@](C)(OC)[C@@H](O)[C@H](C)O2)[C@H](C)[C@@H](O[C@@H]2O[C@H](C)C[C@H](N(C)C)[C@H]2O)[C@](C)(O)C[C@@H](C)CN(C)[C@H](C)[C@@H](O)[C@]1(C)O` [Azithromycin] gave an FICI (P. aeruginosa AUMC-Pa-2) of 0.313, an FICI (P. aeruginosa AUMC-Pa-1) of 0.094 and an FICI (P. aeruginosa PAK; [2]) of 0.188. For the same compound, the “MICa: MIC of the antibiotic” value (P. aeruginosa PAK; [3]) was 128, the “MICac: MIC of the antibiotic in the combination” value (shortened to “MICac: MIC of the antibiotic”) (P. aeruginosa PAK; [4]) was 16 and the FICI (P. aeruginosa NR-31041; [2]) was 0.188. For the same compound, the “MICa: MIC of the antibiotic” value (P. aeruginosa NR-31041; [3]) was 128, the “MICac: MIC of the antibiotic” value (P. aeruginosa NR-31041; [4]) was 16 and the FICI (P. aeruginosa ATCC27853; antibiotic + D-11 (MICb/MICbc 32/4)) was 0.156. The “MICa: MIC of the antibiotic” value (P. aeruginosa ATCC27853; [3]) was 128, the “MICac: MIC of the antibiotic” value (P. aeruginosa ATCC27853; [4]) was 4 and the FICI (P. aeruginosa NR-31040; [5]) was 0.281. The “MICa: MIC of the antibiotic” value (P. aeruginosa NR-31040; [3]) was 128, the “MICac: MIC of the antibiotic” value (P. aeruginosa NR-31040; [4]) was 32 and the FICI (P. aeruginosa PA14; [5]) was 0.281. For the same compound, the “MICa: MIC of the antibiotic” value (P. aeruginosa PA14; [3]) was 128, the “MICac: MIC of the antibiotic” value (P. aeruginosa PA14; [4]) was 32 and the FICI (P. aeruginosa AUMC-Pa-6; [2]) was 0.313. For the same compound, the “MICa: MIC of the antibiotic” value (P. aeruginosa AUMC-Pa-6; [3]) was 128, the “MICac: MIC of the antibiotic” value (P. aeruginosa AUMC-Pa-6; [4]) was 32 and the FICI (P. aeruginosa AUMC-Pa-3; [5]) was 0.094. The “MICa: MIC of the antibiotic” value (P. aeruginosa AUMC-Pa-3; [3]) was 128, the “MICac: MIC of the antibiotic” value (P. aeruginosa AUMC-Pa-3; [4]) was 8 and the MIC (P. aeruginosa PAO1; PAO1, read-out: MIC for azithromycin, azithromycin alone, PAO1) was 128 µM. The MIC (P. aeruginosa PAO1; PAO1, read-out: MIC of AZM, initial bacterial density 10^3 CFU/mL) was 64 µM, the MIC (P. aeruginosa PAO1; PAO1, read-out: MIC of AZM, initial bacterial density 10^4 CFU/mL) was 64 µM and the MIC (P. aeruginosa PAO1; PAO1, read-out: MIC of AZM, initial bacterial density 10^5 CFU/mL) was 128 µM. For the same compound, the MIC (P. aeruginosa PAO1; PAO1, read-out: MIC of AZM, initial bacterial density 10^6 CFU/mL) was 128 µM, the “MICa: the MIC of antibiotics” value (P. aeruginosa PAO1; S1 Table, macrolide alone, PAO1) was 128 µM and the “MICa: the MIC of azithromycin” value (P. aeruginosa PAO1; azithromycin alone, PAO1, broth microdilution in MHB, 18 h, 37 °C, triplicate) was 128/128 μM and 128 μM. For the same compound, the FICI (P. aeruginosa AUMC-Pa-4; [5]) was 0.281, the “MICa: MIC of the antibiotic” value (P. aeruginosa AUMC-Pa-4; [3]) was 128 and the “MICac: MIC of the antibiotic” value (P. aeruginosa AUMC-Pa-4; [4]) was 32. For the same compound, the FICI (P. aeruginosa AUMC-Pa-5; [2]) was 0.313, the “MICa: MIC of the antibiotic” value (P. aeruginosa AUMC-Pa-5; [3]) was 128 and the “MICac: MIC of the antibiotic” value (P. aeruginosa AUMC-Pa-5; [4]) was 32. It also gave an MIC ([1]; read-out: Antibiotic sensibility (MIC) of clinical P. aeruginosa isolate AUMC-Pa-1, strain AUMC-Pa-1) of 128 µM, an MIC ([1]; read-out: Antibiotic sensibility (MIC) of clinical P. aeruginosa isolate AUMC-Pa-2, strain AUMC-Pa-2) of 128 µM and an MIC ([1]; read-out: Antibiotic sensibility (MIC) of clinical P. aeruginosa isolate AUMC-Pa-3, strain AUMC-Pa-3) of 128 µM. The MIC ([1]; read-out: Antibiotic sensibility (MIC) of clinical P. aeruginosa isolate AUMC-Pa-4, strain AUMC-Pa-4) was 128 µM, the MIC ([1]; read-out: Antibiotic sensibility (MIC) of clinical P. aeruginosa isolate AUMC-Pa-5, strain AUMC-Pa-5) was 128 µM and the MIC ([1]; read-out: Antibiotic sensibility (MIC) of clinical P. aeruginosa isolate AUMC-Pa-6, strain AUMC-Pa-6) was 128 µM. The MIC ([1]; read-out: Antibiotic sensibility (MIC) of clinical P. aeruginosa isolate HM-214, strain HM-214) was 128 µM, the MIC ([1]; read-out: Antibiotic sensibility (MIC) of clinical P. aeruginosa isolate NR-31040, strain NR-31040) was 128 µM and the MIC ([1]; read-out: Antibiotic sensibility (MIC) of clinical P. aeruginosa isolate NR-31041, strain NR-31041) was 128 µM. For the same compound, the FICI (P. aeruginosa HM-214) was 0.281.
